The text below walks through data of patent US20210292347A1, “DIHETEROCYCLIC TRIAZINONE NUCLEOSIDE ANALOGS AND THEIR USE FOR MEDICATION” (priority 2020, published 2021).

The test system of this assay is mice sarcoma S180. As to the kind of experiment: Growth inhibition of S180 sarcoma in mice. The settings on record: for in-vivo anti-tumor efficacy, statistical significance (in words): S180 sarcoma in mice, doses and routes of Table 3. The class given is in vivo, Kunming healthy mice.
Setting [1] is: Mus musculus, S-180, mice, ip, read-out: Inhibition rate (%) S180 sarcoma.
The mark [2] stands for this setting: Mus musculus, S-180, mice, iv, read-out: Inhibition rate (%) S180 sarcoma.
The mark [3] stands for this setting: Mus musculus, S-180, mice, ip, 400 mg/kg, read-out: Inhibition rate (%) S180 sarcoma.

`NC(=O)n1nc(N)c2nnn(C3OC(CO)C(O)C3O)c(=O)c21` (stereo not shown) [Example 56, 7-amino-3-(3,4-dihydroxy-5-(hydroxymethyl)tetrahydrofuran-2-yl)-4-oxo-3H-pyrazolo[4,3-d][1,2,3]triazine-5(4H)-carboxamide]: the “in-vivo anti-tumor efficacy, statistical significance (in words)” value is listed as “statistically significant”. Further, the inhibition in vivo at 100 mg/kg under setting [1] is less than 40%. Turning to `N#Cc1nn(C(N)=O)c2c(=O)n(C3OC(CO)C(O)C3O)nnc12` (stereo not shown) [Example 58, 7-cyano-3-(3,4-dihydroxy-5-(hydroxymethyl)tetrahydrofuran-2-yl)-4-oxo-3H-pyrazolo[4,3-d][1,2,3]triazine-5(4H)-carboxamide], the “in-vivo anti-tumor efficacy, statistical significance (in words)” value is “statistically significant”. For the same molecule, under setting [1], the inhibition in vivo at 100 mg/kg is less than 40%. As to `NC(=O)n1nc(N2CCCCC2)c2nnn(C3OC(CO)C(O)C3O)c(=O)c21` (stereo not shown) [Example 59, 3-(3,4-dihydroxy-5-(hydroxymethyl)tetrahydrofuran-2-yl)-4-oxo-7-(piperidin-1-yl)-3H-pyrazolo[4,3-d][1,2,3]triazine-5(4H)-carboxamide], under setting [2], the inhibition in vivo at 50 mg/kg is less than 20%. Regarding `NC(=O)n1nc([N+](=O)[O-])c2nnn(C3OC(CO)C(O)C3O)c(=O)c21` (stereo not shown) [Example 60, 3-(3,4-dihydroxy-5-(hydroxymethyl)tetrahydrofuran-2-yl)-7-nitro-4-oxo-3H-pyrazolo[4,3-d][1,2,3]triazine-5(4H)-carboxamide], the “in-vivo anti-tumor efficacy, statistical significance (in words)” value is “statistically significant”. Moreover, the inhibition in vivo at 15 mg/kg (Mus musculus, S-180, mice, iv, 15 mg/kg, read-out: Inhibition rate (%) S180 sarcoma) was less than 40%. Regarding `COc1ccc(C(=O)Nc2nn(C(N)=O)c3c(=O)n(C4OC(CO)C(O)C4O)nnc23)cc1` (stereo not shown) [Example 61, 3-(3,4-dihydroxy-5-(hydroxymethyl)tetrahydrofuran-2-yl)-7-(4-methoxybenzamido)-4-oxo-3H-pyrazolo[4,3-d][1,2,3]triazine-5(4H)-carboxamide], where the note is “Mus musculus, S-180, mice, iv, 12.5 mg/kg, read-out: Inhibition rate (%) S180 sarcoma”, the inhibition in vivo at 12.5 mg/kg is less than 20%. Turning to `CCCc1nn(C(=N)N)c2c(=O)n(C3OC(CO)C(O)C3O)nnc12` (stereo not shown) [Example 68, 3-(3,4-dihydroxy-5-(hydroxymethyl)tetrahydrofuran-2-yl)-4-oxo-7-propyl-3H-pyrazolo [4,3-d][1,2,3]triazine-5(4H)-carboximidamide], the “in-vivo anti-tumor efficacy, statistical significance (in words)” value is “statistically significant”. Besides, under setting [2], the inhibition in vivo at 20 mg/kg is less than 40%.

For `N#Cc1nn(C(=N)N)c2c(=O)n(C3OC(CO)C(O)C3O)nnc12` (stereo not shown) [Example 70, 7-cyano-3-(3,4-dihydroxy-5-(hydroxymethyl)tetrahydrofuran-2-yl)-4-oxo-3H-pyrazolo[4,3-d][1,2,3]triazine-5(4H)-carboximidamide], the “in-vivo anti-tumor efficacy, statistical significance (in words)” value is on record as “statistically significant”. Moreover, the inhibition in vivo at 100 mg/kg under setting [1] is less than 40%. Take `N=C(N)n1nc([N+](=O)[O-])c2nnn(C3OC(CO)C(O)C3O)c(=O)c21` (stereo not shown) [Example 72, 3-(3,4-dihydroxy-5-(hydroxymethyl)tetrahydrofuran-2-yl)-7-nitro-4-oxo-3H-pyrazolo[4,3-d][1,2,3]triazine-5(4H)-carboximidamide]: the “in-vivo anti-tumor efficacy, statistical significance (in words)” value is “statistically significant”. The inhibition in vivo at 25 mg/kg (Mus musculus, S-180, mice, iv, 25 mg/kg, read-out: Inhibition rate (%) S180 sarcoma) is less than 40%.

As to `CCOC(=O)c1nn(C(N)=S)c2c(=O)n(C3OC(CO)C(O)C3O)nnc12` (stereo not shown) [Example 73, ethyl 5-carbamothioyl-3-(3,4-dihydroxy-5-(hydroxymethyl)tetrahydrofuran-2-yl)-4-oxo-4,5-dihydro-3H-pyrazolo[4,3-d][1,2,3]triazine-7-carboxylate], the “in-vivo anti-tumor efficacy, statistical significance (in words)” value is listed as “statistically significant”. For the same molecule, the inhibition in vivo at 200 mg/kg under setting [1] was less than 40%. On to `CCCc1nn(C(N)=S)c2c(=O)n(C3OC(CO)C(O)C3O)nnc12` (stereo not shown) [Example 74, 3-(3,4-dihydroxy-5-(hydroxymethyl)tetrahydrofuran-2-yl)-4-oxo-7-propyl-3H-pyrazolo[4,3-d][1,2,3]triazine-5(4H)-carbothioamide], for which the “in-vivo anti-tumor efficacy, statistical significance (in words)” value is listed as “statistically significant”. Moreover, the inhibition in vivo at 200 mg/kg under setting [1] was less than 40%.

Consider `CN(C)CCC(=O)Nc1nn(C(N)=S)c2c(=O)n(C3OC(CO)C(O)C3O)nnc12` (stereo not shown) [Example 76, N-(5-carbamothioyl-3-(3,4-dihydroxy-5-(hydroxymethyl)tetrahydrofuran-2-yl)-4-oxo-4,5-dihydro-3H-pyrazolo[4,3-d][1,2,3]triazin-7-yl)-3-(dimethylamino) propanamide], for which the “in-vivo anti-tumor efficacy, statistical significance (in words)” value is recorded as “statistically significant”. In addition, the “Inhibition rate (%) S180 sarcoma” value (mice, ip, 400 mg/kg) was “++ (++ represent of Inhibition rate % <40)”. Turning to `N#Cc1nn(C(N)=S)c2c(=O)n(C3OC(CO)C(O)C3O)nnc12` (stereo not shown) [Example 77, 7-cyano-3-(3,4-dihydroxy-5-(hydroxymethyl)tetrahydrofuran-2-yl)-4-oxo-3H-pyrazolo[4,3-d][1,2,3]triazine-5(4H)-carbothioamide], the “in-vivo anti-tumor efficacy, statistical significance (in words)” value was “statistically significant”. Moreover, under setting [1], the inhibition in vivo at 100 mg/kg is less than 40%. Regarding `CCCc1nn(O)c2c(=O)n(C3CCC(CO)O3)nnc12` (stereo not shown) [Example 79, 5-hydroxy-3-(5-(hydroxymethyl)tetrahydrofuran-2-yl)-7-propyl-3H-pyrazolo[4,3-d][1,2,3]triazin-4(5H)-one], the inhibition in vivo at 300 mg/kg (Mus musculus, S-180, mice, ip, 300 mg/kg, read-out: Inhibition rate (%) S180 sarcoma) is less than 20%. Consider `CCCc1nn(C)c2c(=O)n(C3CCC(CO)O3)nnc12` (stereo not shown) [Example 80, 3-(5-(hydroxymethyl)tetrahydrofuran-2-yl)-5-methyl-7-propyl-3H-pyrazolo[4,3-d][1,2,3]triazin-4(5H)-one], for which the inhibition in vivo at 200 mg/kg under setting [1] is less than 20%. `CCOP(=O)(OCC)C(Nc1nn(CO)c2c(=O)n(C3CCC(CO)O3)nnc12)C(=O)O` (stereo not shown) [Example 81, 2-(diethoxyphosphoryl)-2-((5-(hydroxymethyl)-3-(5-(hydroxymethyl)tetrahydrofuran-2-yl)-4-oxo-4,5-dihydro-3H-pyrazolo[4,3-d][1,2,3]triazin-7-yl)amino)acetic acid]: the “in-vivo anti-tumor efficacy, statistical significance (in words)” value is reported as “statistically significant”. Also, the inhibition in vivo at 100 mg/kg under setting [1] was less than 40%. Turning to `CCOP(=O)(OCC)C(C(=O)O)n1nc(N)c2nnn(C3CCC(CO)O3)c(=O)c21` (stereo not shown) [Example 83, 2-(7-amino-3-(5-(hydroxymethyl)tetrahydrofuran-2-yl)-4-oxo-3H-pyrazolo[4,3-d][1,2,3]triazin-5(4H)-yl)-2-(diethoxyphosphoryl)acetic acid], the inhibition in vivo at 20 mg/kg under setting [2] was less than 20%. Consider `CCCc1nn(C(=N)N)c2c(=O)n(C3CCC(CO)O3)nnc12` (stereo not shown) [Example 85, 3-(5-(hydroxymethyl)tetrahydrofuran-2-yl)-4-oxo-7-propyl-3H-pyrazolo[4,3-d][1,2,3]triazine-5(4H)-carboximidamide], for which the inhibition in vivo at 400 mg/kg under setting [3] is less than 20%. In the case of `CCCc1nn(C(N)=S)c2c(=O)n(C3CCC(CO)O3)nnc12` (stereo not shown) [Example 86, 3-(5-(hydroxymethyl)tetrahydrofuran-2-yl)-4-oxo-7-propyl-3H-pyrazolo[4,3-d][1,2,3]triazine-5(4H)-carbothioamide], the inhibition in vivo at 200 mg/kg under setting [1] is less than 20%.

Regarding `CCCc1nn(O)c2c(=O)n(C3CSC(CO)O3)nnc12` (stereo not shown) [Example 88, 5-hydroxy-3-(2-(hydroxymethyl)-1,3-oxathiolan-5-yl)-7-propyl-3H-pyrazolo[4,3-d][1,2,3]triazin-4(5H)-one], the “in-vivo anti-tumor efficacy, statistical significance (in words)” value is given as “statistically significant”. Further, the inhibition in vivo at 400 mg/kg under setting [3] is less than 40%. Regarding `CCOP(=O)(OCC)C(Nc1nn(C)c2c(=O)n(C3CSC(CO)O3)nnc12)C(=O)O` (stereo not shown) [Example 90, 2-(diethoxyphosphoryl)-2-((3-(2-(hydroxymethyl)-1,3-oxathiolan-5-yl)-5-methyl-4-oxo-4,5-dihydro-3H-pyrazolo[4,3-d][1,2,3]triazin-7-yl)amino)acetic acid], under setting [2], the inhibition in vivo at 30 mg/kg is less than 20%.

In the case of `CCCc1nn(C)c2c(=O)n(C3CSC(CO)O3)nnc12` (stereo not shown) [Example 91, 3-(2-(hydroxymethyl)-1,3-oxathiolan-5-yl)-5-methyl-7-propyl-3H-pyrazolo[4,3-d][1,2,3]triazin-4(5H)-one], the “in-vivo anti-tumor efficacy, statistical significance (in words)” value is “statistically significant”. In addition, the inhibition in vivo at 200 mg/kg under setting [1] was less than 40%. In the case of `CCCc1nn(CO)c2c(=O)n(C3CSC(CO)O3)nnc12` (stereo not shown) [Example 94, 5-(hydroxymethyl)-3-(2-(hydroxymethyl)-1,3-oxathiolan-5-yl)-7-propyl-3H-pyrazolo[4,3-d][1,2,3]triazin-4(5H)-one], the “in-vivo anti-tumor efficacy, statistical significance (in words)” value is reported as “statistically significant”. In addition, the inhibition in vivo at 30 mg/kg under setting [2] was less than 40%. Consider `CCCc1nn(CC(N)=O)c2c(=O)n(C3CSC(CO)O3)nnc12` (stereo not shown) [Example 95, 2-(3-(2-(hydroxymethyl)-1,3-oxathiolan-5-yl)-4-oxo-7-propyl-3H-pyrazolo[4,3-d][1,2,3]triazin-5(4H)-yl)acetamide], for which the “in-vivo anti-tumor efficacy, statistical significance (in words)” value is on record as “statistically significant”. Further, the inhibition in vivo at 50 mg/kg under setting [2] was less than 40%.

As to `CCCc1nn(C(N)=O)c2c(=O)n(C3CSC(CO)O3)nnc12` (stereo not shown) [Example 97, 3-(2-(hydroxymethyl)-1,3-oxathiolan-5-yl)-4-oxo-7-propyl-3H-pyrazolo[4,3-d][1,2,3]triazine-5(4H)-carboxamide], the “in-vivo anti-tumor efficacy, statistical significance (in words)” value was “statistically significant”. The inhibition in vivo at 100 mg/kg under setting [1] is less than 40%.
